Data: patent US20250214977A1, “STAT6 INHIBITORS AND USES THEREOF” (Kymera Therapeutics, Inc., priority 2024, published 2025)

The compounds below were run on Phosphorylation of STAT6 in human A549 cells (assay: Phosphorylated STAT6 (pSTAT6) flow cytometry assay in human A549 cells). Settings: read-out: STAT6 IL4 pSTAT6 assay in A549 cells: Average IC50.
Type: cell-based
Excerpt: Example 3. Phosphorylated STAT6 (pSTAT6) Flow Cytometry Assay in Human A549 Cells
Phosphorylation of STAT6 in human A549 cells was quantitatively measured using flow cytometry technology.

| SMILES | IC50 [nM] |
| --- | --- |
| CCc1cc(C)ncc1-c1cc(C2=CCCN(C(=O)CCn3ccnn3)C2)c(F)c2[nH]c(C(=O)N3CCN(C4CC4)CC3)cc12 [Example I-536] | < 100 |
| O=C(CCn1ccnn1)N1CCC=C(c2cc(-c3ccccc3F)c3cc(C(=O)N4CCN(c5ncccc5OC5CC5)CC4)[nH]c3c2F)C1 [Example I-343] | < 100 |
| COc1cc(F)c(C)nc1N1CCN(C(=O)c2cc3c(-c4cnc(C)cc4C(C)C)cc(C4=CCCN(C(=O)CCn5ccnn5)C4)c(F)c3[nH]2)CC1 [Example I-740] | < 100 |
| COc1ccccc1-c1cc(C2=CCCN(C(=O)CCn3ccnn3)C2)c(F)c2[nH]c(C(=O)N3CCN(c4ccncc4OC)CC3)cc12 [Example I-365] | < 100 |
| CN(C)C(=O)c1cc2ccc([C@H]3CCCN(C(=O)CCn4ccnn4)C3)cc2[nH]1 [Example I-1189] | 100 to 1000 |
| COc1ccccc1-c1cc(C2=CCCN(C(=O)CCn3ccnn3)C2)c(F)c2[nH]c(C(=O)N3Cc4ccc(C#N)cc4C3)cc12 [Example I-975] | < 100 |
| CCc1ccncc1-c1cc(C2=CCCN(C(=O)CCn3cccn3)C2)c(F)c2[nH]c(C(=O)N3CCN(c4ncc(F)cc4OC)CC3)cc12 [Example I-686] | < 100 |
| CCc1cc(CC)c(-c2cc(C3=CCCN(C(=O)CCn4cccn4)C3)c(F)c3[nH]c(C(=O)N4CCN(c5nc(C)c(F)cc5OC)CC4)cc23)cn1 [Example I-741] | 100 to 1000 |
| Cc1cc(-c2cc(C3=CCCN(C(=O)CCn4ccnn4)C3)cc3cc(C(=O)N(C)C)oc23)n(C)n1 [Example I-1070] | < 100 |
| COc1cc(F)cnc1N1CCN(C(=O)c2cc3c(-c4ccc5nn(C)cc5c4)cc(C4=CCCN(C(=O)CCn5ccnn5)C4)c(F)c3[nH]2)CC1 [Example I-624] | < 100 |
| COc1ccccc1N1CCN(C(=O)c2cc3c(-c4cnccc4OC(C)(C)C)cc(C4=CCCN(C(=O)CCn5ccnn5)C4)c(F)c3[nH]2)CC1 [Example I-404] | > 100000 |
| CCC1CN(C(=O)c2cc3c(-c4ccccc4OC)cc(C4=CCCN(C(=O)CCn5ccnn5)C4)c(F)c3[nH]2)CC=C1c1ccccn1 (racemic) [Example I-1042] | 10000 to 100000 |
| CNc1ccc(-c2cc([C@H]3CCCN(C(=O)CCn4ccnn4)C3)cc3[nH]c(C(=O)N(C)C)cc23)c(OC)c1 (single isomer, unassigned) [Example I-1194] | < 100 |
| COc1ccccc1N1CCN(C(=O)c2cc3c(-c4cccnc4OC)cc(C4=CCCN(C(=O)CCn5ccnn5)C4)c(F)c3[nH]2)CC1 [Example I-599] | < 100 |
| COc1cccnc1N1CCN(C(=O)c2cc3c(-c4cccc5ccccc45)cc(C4=CCCN(C(=O)CCn5ccnn5)C4)c(F)c3[nH]2)CC1 [Example I-397] | > 100000 |
| COc1ccncc1-c1cc(C2=CCCN(C(=O)CCn3ccnn3)C2)c(F)c2[nH]c(C(=O)N3CCN(c4ccc(F)c(OC)n4)CC3)cc12 [Example I-444] | < 100 |
| COc1cc(C)c(N2CCN(C(=O)c3cc4c(-c5ccccc5OC)cc(C5=CCCN(C(=O)CCn6ccnn6)C5)c(F)c4[nH]3)CC2)c(C)n1 [Example I-958] | 100 to 1000 |
| COc1ccncc1-c1cc(C2=CCCN(C(=O)CCn3ccnn3)C2)c(F)c2[nH]c(C(=O)N3CCN(c4nc(Cl)ccc4OC)CC3)cc12 [Example I-491] | > 100000 |
| CCc1ccc(OC)c(N2CCN(C(=O)c3cc4c(-c5cnccc5OC)cc(C5=CCCN(C(=O)CCn6ccnn6)C5)c(F)c4[nH]3)CC2)n1 [Example I-466] | < 100 |
| COc1ccccc1-c1cc(C2=CCCN(C(=O)CCn3ccnn3)C2)c(F)c2[nH]c(C(=O)N3CCN(c4cnc5nccnc5c4C)CC3)cc12 [Example I-944] | < 100 |
| CCc1nc(C)ccc1-c1cc(C(=O)N2Cc3cnn(CC)c3C2)c(F)c2cc(C3=CCCN(C(=O)CCn4ccnn4)C3)n(CC3CC3)c12 [Example I-549] | > 100000 |
| COc1ccccc1-c1cc(C2=CCCN(C(=O)CCn3ccnn3)C2)c(F)c2[nH]c(C(=O)N3CCN(c4ncc(C(F)(F)F)cc4OC)CC3)cc12 [Example I-941] | < 100 |
| COc1ccccc1-c1cc(C2=CCCN(C(=O)CCn3ccnn3)C2)c(F)c2[nH]c(C(=O)N3CCN(c4ncc(C#N)cc4OC)CC3)cc12 [Example I-940] | < 100 |
| COc1ccncc1-c1cc(C2=CCCN(C(=O)CCn3ccnn3)C2)c(F)c2[nH]c(C(=O)N3CCN(c4ccccc4OC)CC3)cc12 [Example I-565] | < 100 |
| COc1ccccc1-c1cc(C2=CCCN(C(=O)CCn3ccnn3)C2)c(F)c2[nH]c(C(=O)N3CCN(c4ccnc(Nc5ccc(C#N)cc5)n4)CC3)cc12 [Example I-948] | < 100 |
| COc1ccncc1-c1cc(C2=CCCN(C(C)=O)C2)c(F)c2[nH]c(C(=O)N(C)C)cc12 [Example I-1094] | < 100 |
| COc1ccccc1-c1cc(C2=CCCN(C(=O)CCn3ccnn3)C2)c(F)c2[nH]c(C(=O)N3CCN(Cc4ccc(Br)cc4)CC3)cc12 [Example I-852] | 100 to 1000 |
| COc1ccccc1-c1cc(C2=CCCN(C(=O)CCn3ccnn3)C2)c(F)c2[nH]c(C(=O)N3CCN(c4c(C)ccc5c4cnn5C)CC3)cc12 [Example I-928] | < 100 |

Further lines, results first:

| IC50 [nM] | SMILES |
| --- | --- |
| 1000 to 10000 | CN(C)C(=O)c1cc2cc(C3=CCCN(C(=O)C(Cn4ccnn4)c4cccc(CO)c4)C3)ccc2o1 (stereo not drawn) [Example I-832] |
| < 100 | COc1ccncc1-c1cc(C2=CCCN(C(=O)CCn3cccn3)C2)c(F)c2[nH]c(C(=O)N3CCN(c4ncc(F)cc4OC)CC3)cc12 [Example I-664] |
| 100 to 1000 | Cc1cc(CNc2cc(C3=CCCN(C(=O)CCn4ccnn4)C3)cc3cc(C(=O)N(C)C)oc23)n(C)n1 [Example I-894] |
| < 100 | COc1ccccc1-c1cc(C2=CCCN(C(=O)CCn3ccnn3)C2)c(F)c2[nH]c(C(=O)N3CCN(c4ncc(C5CC5)cc4OC)CC3)cc12 [Example I-354] |
| < 100 | COC(=O)c1ccc(OC)c(N2CCN(C(=O)c3cc4c(-c5ccccc5OC)cc(C5=CCCN(C(=O)CCn6ccnn6)C5)c(F)c4[nH]3)CC2)n1 [Example I-360] |
| < 100 | CCc1ccncc1-c1cc(C2=CCCN(C(=O)C(=O)O)C2)c(F)c2[nH]c(C(=O)N3CCN(c4ncc(F)cc4OC)CC3)cc12 [Example I-790] |
| < 100 | COc1cc(F)cnc1N1CCN(C(=O)c2cc3c(-c4cccnc4C4CC4)cc(C4=CCCN(C(=O)CCn5ccnn5)C4)c(F)c3[nH]2)CC1 [Example I-628] |
| < 100 | COc1ccccc1-c1cc(C2=CCCN(C(=O)CCn3ccnn3)C2)c(F)c2[nH]c(C(=O)N3CCN(c4cncc5cccnc45)CC3)cc12 [Example I-954] |
| < 100 | COc1ccccc1-c1cc(C2=CCCN(C(=O)CCn3ccnn3)C2)c(F)c2[nH]c(C(=O)N3CCCC3)cc12 [Example I-842] |
| < 100 | COc1ccccc1-c1cc(C2=CCCN(C(=O)CCn3ccnn3)C2)c(F)c2[nH]c(C(=O)N3CCc4cc(C(F)(F)F)ccc4C3)cc12 [Example I-977] |
| 100 to 1000 | CN(C)C(=O)c1cc2cc(C3=CCCN(C(=O)CCc4nncs4)C3)ccc2o1 [Example I-824] |
| 1000 to 10000 | CCc1ccncc1-c1cc(C2=CCCN(C(=O)C(C)C)C2)c(F)c2[nH]c(C(=O)N3CCN(c4ncc(F)cc4OC)CC3)cc12 [Example I-1044] |
| < 100 | COc1cc(F)c(F)cc1-c1cc(C2=CCCN(C(=O)CCn3ccnn3)C2)c(F)c2[nH]c(C(=O)N3CCN(c4ncccc4OC)CC3)cc12 [Example I-559] |
| < 100 | COCCCOc1ccc(-c2cc(C3=CCCN(C(=O)CCn4ccnn4)C3)c(F)c3[nH]c(C(=O)N4CCN(c5ncc(F)cc5OC)CC4)cc23)cc1 [Example I-1112] |
